Assay [1] addresses T1, BRD4BD1-EGFP (Homo sapiens, UniProt O60885+Q96SW2).
T1 construct: expressed in transfected cells
Put plainly: BRD4BD1-EGFP/mCherry reporter cellular degradation assay (flow cytometry). It counts as cell-based. The following applies: 5 h treatment. The method, then:
Reporter cells that stably express BRD4BD1-EGFP followed by a P2A splice site separated mCherry, were treated with increasing concentrations of dBET molecules (FIG. 3A-FIG. 3F). […] IKZF1A, BRD2BD1, BRD2BD2, BRD3BD1, BRD3BD2, BRD4BD1, and BRD4BD2 were subcloned into mammalian pcDNA5/FRT Vector (Ampicillin and Hygromycin B resistant) modified to contain MCS-eGFP-P2A-mCherry. […] Following 2-3 passage cycle FACS (FACSAria II, BD) was used to enrich for cells expressing eGFP and mCherry.
(§1) Signal from 5000 cells per well was acquired in singlicate or duplicate and the eGFP and mCherry florescence monitored. Data was analyzed using FlowJo (FlowJo, LCC). […] The eGFP protein abundance relative to mCherry was then quantified as a ten-fold amplified ratio for each individual cell using the formula: 10×eGFP/mCherry. The median of the ratio was then calculated per set, normalized to the median of the DMSO ratio, and is denoted as relative abundance. Standard deviation is calculated from four replicates (n=4) unless described otherwise.
A general note: Flow cytometry measures light scatter and fluorescence of single cells or particles in a stream.

Assay [2] deals with BRD2BD1, BRD2BD2, BRD3BD1, BRD3BD2, BRD4BD1, BRD4BD2 EGFP constructs. Put plainly: EGFP/mCherry reporter assay on individual BET bromodomains (flow cytometry). It counts as cell-based, human. The method, then:
(§2) IKZF1A, BRD2BD1, BRD2BD2, BRD3BD1, BRD3BD2, BRD4BD1, and BRD4BD2 were subcloned into mammalian pcDNA5/FRT Vector (Ampicillin and Hygromycin B resistant) modified to contain MCS-eGFP-P2A-mCherry. […] Following 2-3 passage cycle FACS (FACSAria II, BD) was used to enrich for cells expressing eGFP and mCherry.
as §1
A general note: Reporter assays use an easily measured gene product as a stand-in for the process of interest.

The target of assay [3] is T2, endogenous BRD4 in HEK293T cells (Homo sapiens, UniProt O60885).
T2 construct: retains activity on endogenous full length BRD4; endogenous in cells; host or cells: HEK293T
Put plainly: Immunoblot for cellular degradation of endogenous BRD4. Type of assay: cell-based. Particulars: 5 hours. The procedure: (§3) HEK293T cells were treated with increasing concentrations of ZXH-03-26.
In general terms: In western blotting, separated proteins are transferred to a membrane and probed.

The test system of assay [4] is BRD2 and BRD3 in HEK293T cells. Put plainly: Immunoblot for cellular degradation of BRD2 and BRD3. It counts as cell-based, human. The method, then: as §3
In assay [5] the target is T3, IKZF1Δ-EGFP fusion protein (Homo sapiens, UniProt Q13422+Q96SW2, DEL197-239).
T3 construct: expressed in transfected cells; HEK293T cells
Put plainly: IKZF1Δ-EGFP fusion protein degradation reporter assay (flow cytometry). Type of assay: cell-based. The following applies: HEK293T cells. The method, then:
as §2, §1

The target in assay [6] is T4, IKZF1Δ-CRBN complex formation (Homo sapiens, UniProt Q13422+Q96SW2, DEL197-239).
T4 construct: made in house; host or cells: Trichoplusia ni High-Five insect cells (baculovirus)
T4 sequence (Q96SW2 whole entry, stated change not applied): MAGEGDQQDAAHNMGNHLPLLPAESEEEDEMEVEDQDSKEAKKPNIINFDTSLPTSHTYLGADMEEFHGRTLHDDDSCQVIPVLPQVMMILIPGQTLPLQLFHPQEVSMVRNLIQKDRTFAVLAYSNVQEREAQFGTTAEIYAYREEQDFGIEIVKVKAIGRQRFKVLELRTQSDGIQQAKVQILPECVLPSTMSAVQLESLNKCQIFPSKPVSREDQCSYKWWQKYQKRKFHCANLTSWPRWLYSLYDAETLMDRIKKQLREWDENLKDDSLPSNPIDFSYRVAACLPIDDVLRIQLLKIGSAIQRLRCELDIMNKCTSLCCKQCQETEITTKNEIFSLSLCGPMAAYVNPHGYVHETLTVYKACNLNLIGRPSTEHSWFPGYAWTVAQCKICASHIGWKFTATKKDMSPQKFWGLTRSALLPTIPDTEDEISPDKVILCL
T4 sequence (Q13422 with tags, fused parts or gaps DEL197-239 limits assumed): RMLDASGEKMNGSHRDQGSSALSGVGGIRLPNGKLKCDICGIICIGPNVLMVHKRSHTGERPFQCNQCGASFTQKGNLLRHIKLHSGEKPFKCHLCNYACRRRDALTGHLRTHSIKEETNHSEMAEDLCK
Put plainly: CRBN-IKZF1Δ binding assay (TR-FRET). Particulars: IKZF1Δ and DDB1ΔB-CRBN. The method, then:
Compounds in CRBN mutants dimerization assay were dispensed as described above into 200 nM His6-DDB1-His6-CRBNmutants or 200 nM His6-DDB1ΔB-His6-CRBNWT, 100 nM BRD4BD1-BODIPY-SpyCatcher and 2 nM terbium-anti-HIS Ab (Invitrogen) in a buffer containing 50 mM Tris pH 7.5, 100 mM NaCl, 0.1% Pluronic F-68 solution (Sigma) and 2% DMSO (4% DMSO final). Before TR-FRET measurements were conducted, the reactions were incubated for 15 min at RT. […] The TR-FRET signal of each data point was extracted by calculating the 520/490 nm ratio. […] The peak height of TR-FRET dBET dose response data was calculated in GraphPad Prism 7 using Area Under Curve analysis for three independent replicates (n=3) and the mean peak height and standard deviation calculated.
The standard deviation in IKZF1A TR-FRET compound titrations was calculated from three biological replicates (n=3) as an average of 5 technical replicates per well per experiment, or as an average of 5 technical replicates of single experiment for unlabelled protein titrations.

For assay [7], the system named is IKZF1, IKZF3 and ZFP91 in MM.1s cells. Put plainly: Quantitative proteomics (TMT LC-MS3) in MM.1s cells. It counts as cell-based, human. Particulars: 1 μM, five hours. The procedure: A micro-BCA assay (Pierce) was used to determine the final protein concentration in the cell lysate. […] Proteins were precipitated using methanol/chloroform. In brief, four volumes of methanol were added to the cell lysate, followed by one volume of chloroform, and finally three volumes of water.

“Also recorded” adds a separate entry of the source.

`COC(=O)C[C@@H]1N=C(c2ccc(Cl)cc2)c2c(sc(C(=O)NCCCCCNc3cccc4c3C(=O)N(C3CCC(=O)NC3=O)C4=O)c2C)-n2c(C)nnc21` (stereo partly drawn) [ZXH-03-26]: the “degradation of BRD4BD1 (in words)” value in assay [1] is listed as “active on BRD4BD1”. Besides, the DC50 in assay [1] (GFP/mCherry ratio, read-out: DC50/5h (half-maximal degradation after 5 hours of treatment), BRD4BD1) was approximately 5 nM. Also, the “concentrations at which degradation of BRD2 or 3 is spared” value in assay [2] is more than 10 µM. Moreover, the “selectivity of degradation across BET bromodomains (in words)” value in assay [2] (BRD2/3/4 BD1 and BD2) was “activity exclusively on the first bromodomain of BRD4; also recorded: selectively targets BRD4 for degradation and spares BRD2 and BRD3”. Besides, the “degradation of endogenous BRD4 (in words)” value in assay [3] is on record as “degrades endogenous BRD4 with comparable efficacy compared to the best pan-BET degrader dBET6”. The “degradation of BRD2 and BRD3 (in words)” value in assay [4] is “inactive on BRD2 and BRD3”.

As to `COC(=O)C[C@@H]1N=C(c2ccc(Cl)cc2)c2c(sc(C(=O)NCCCCCCCCNc3cccc4c3C(=O)N(C3CCC(=O)NC3=O)C4=O)c2C)-n2c(C)nnc21` (stereo partly drawn) [dBET70, reference compound], the “cellular IKZF1 degradation (in words)” value in assay [5] is recorded as “equipotent to lenalidomide”. Moreover, in assay [6], the “induction of IKZF1-CRBN complex formation / IKZF1 binding (in words)” value is reported as “pronounced complex formation”. Moreover, the “co-degradation of CRBN-lenalidomide neo-substrates IKZF1, IKZF3 and ZFP91” value in assay [7] was “pronounced co-degradation of CRBN-lenalidomide neo-substrates IKZF1, IKZF3 and ZFP91”.

The record behind these values is patent US11505560B2, “Heterobifunctional compounds with improved specificity” (DANA-FARBER CANCER INSTITUTE, INC., priority 2017, dated 2022).
